This assay concerns human peripheral blood lymphocytes. As to the kind of experiment: Lipopolysaccharide-stimulated TNFα release from human peripheral blood lymphocytes. Type of assay: cell-based. The note with it: Homo sapiens, Lymphocyte, LPS-stimulated TNFα release from human PBL; read-out: PBL/TNFα EC50. The protocol: The compounds of structural formula (II) also were tested for an ability to reduce TNFα secretion in human peripheral blood lymphocytes. The ability to reduce TNFα secretion is related to the EC50 values (i.e., the effective concentration of the compound capable of inhibiting 50% of the total TNFα).
To assess the ability of a compound to reduce TNFα secretion in human peripheral blood lymphocytes (PBL), the following tests were performed.
Heparinized blood (approximately 30 mL) drawn from human volunteers was mixed 1:1 with Dulbecco's modified phosphate-buffered saline. This mixture was mixed 1:1 with HISTOPAQUE® and centrifuged at 1,500 rpm at room temperature without braking in the swinging bucket of a Beckman model TJ6 centrifuge. Erythrocytes were centrifuged to the bottom of the tubes, and serum remained at the surface of the tubes. A layer containing lymphocytes sedimented between the serum and HISTOPAQUE® layers, and was removed by aspiration to a fresh tube. The cells were quantified and adjusted to 3×10^6 cells/mL and a 100 μL aliquot is placed into the wells of a 96 well plate. Test compounds and RPMI media (Gibco/BRL Life Sciences) are added to each of the wells 15 minutes prior to addition of bacterial LPS ([…]). The mixture was allowed to incubate for 20 hours at 37° C. in a humidified chamber. The cells then were separated by centrifuging at 800 rpm for 5 minutes at room temperature. An aliquot of 180 μL of supernatant was transferred to a new plate for determination of TNFα concentration. TNFα protein in the cell supernatant fluids was measured using a commercially available enzyme-linked immunosorbent assay (ELISA) (CYTOSCREEN® Immunoassay Kit from Biosource International).
The cell-based assay provided the following results for various pyrrolidine compounds of the present invention. The EC50 values (i.e., effective concentration of the compound capable of inhibiting 50% of the total TNFα) illustrate the ability of the present compounds to inhibit LPS-stimulated TNFα release from human PBL.
As to `COC(=O)N1C[C@@H](c2ccc(OC)c(OC(C)CCc3ccccc3)c2)[C@](C)(C(C)O)C1` (relative stereo) [Example 6, trans-3-(1-Hydroxyethyl)-4-(4-methoxy-3-(1-methyl-3-phenylpropoxy)phenyl]-3-methylpyrrolidine-1-carboxylic acid methyl ester], the EC50 was found to be 3660 nM.
`COc1ccc([C@@H]2CN(C(=O)C(O)c3ccccc3)CC2(C)[C@@H](C)O)cc1OC1CCCC1` (stereo in doubt) [Example 63, 1-((3R)-3-((1R)-1-Hydroxyethyl)-4-(3-cyclopentyloxy-4-methoxyphenyl)-3-methylpyrrolidinyl]-2-hydroxy-2-phenylethan-1-one]: the EC50 came out at 267 nM.
As for `COc1ccc([C@@H]2CN(C(=O)[C@H](O)C3CCCCC3)C[C@@]2(C)[C@@H](C)O)cc1OC1CCCC1` [Example 91, (2R)-1-[3-((1R)-1-Hydroxyethyl)(3S,4S)-4-(3-cyclopentyloxy-4-methoxyphenyl)-3-methylpyrrolidinyl]-2-cyclohexyl-2-hydroxyethan-1-one], the EC50 came out at 44 nM.
In the case of `COc1ccc([C@@H]2CN(C(=O)CO)C[C@@]2(C)C(C)(C)O)cc1OCC1CC1` [Example 2, 1-[4-(S)-(3-Cyclopropylmethoxy-4-methoxyphenyl)-3-(1-hydroxy-1-methylethyl)-3-(S)-methylpyrrolidin-1-yl]-2-hydroxyethanone], the EC50 came to 1900 nM.
In the case of `COC(=O)N1C[C@@H](c2ccc(OC)c(OC3CCCC3)c2)[C@](C)(C(C)(C)O)C1` (racemic) [Example 1, (±)-4-(3-Cyclopentyloxy-4-methoxyphenyl)-3-(1-hydroxy-1-methylethyl)-3-methylpyrrolidine-1-carboxylic acid methyl ester], the EC50 is 1210 nM.
Consider `COc1ccc([C@@H]2CN(C(=O)C(N)=O)C[C@@]2(C)[C@@H](C)O)cc1OCC1CC1` [Example 78, 2-[(3S,4S)-4-(3-Cyclopropylmethoxy-4-methoxyphenyl)-3-((R)-1-hydroxyethyl)-3-methylpyrrolidin-1-yl]-2-oxo-acetamide], for which the EC50 is 1290 nM.
`COc1ccc([C@@H]2CN(C(=O)[C@@H](OC(C)=O)C3CCCCC3)C[C@@]2(C)[C@@H](C)O)cc1OC1CCCC1` [Example 88, 2-[3-((1R)1-Hydroxyethyl)(3S,4S)-4-(3-cyclopentyloxy-4-methoxyphenyl)-3-methylpyrrolidinyl](1S)-1-cyclohexyl-2-oxoethyl acetate]: the EC50 amounted to 630 nM.
With `COc1ccc([C@@H]2CN(C(=O)C(N)=O)C[C@@]2(C)[C@@H](C)O)cc1OCC#Cc1ccccc1` [Example 75, 2-{(3S,4S)-3-((R)-1-Hydroxyethyl)-4-[4-methoxy-3-(3-phenylprop-2-ynyloxy)-phenyl]-3-methylpyrrolidin-1-yl}-2-oxo-acetamide], the EC50 was determined as 121 nM.
Take `COc1ccc([C@@H]2CN(c3cccnc3)C[C@@]2(C)[C@@H](C)O)cc1OC1Cc2ccccc2C1` [Example 32, (1R)-1-[(3S,4S)-4-(3-Indan-2-yloxy-4-methoxyphenyl)-3-methyl-1-(3-pyridyl)pyrrolidin-3-yl]ethan-1-ol]: the EC50 was determined as 801 nM.
As to `COc1ccc([C@@H]2CN(C(=O)C(=O)NC3CCCC3)C[C@@]2(C)[C@@H](C)O)cc1OC1CCCC1` [Example 82, 2-[3-((1R)-1-Hydroxyethyl)(3S,4S)-4-(3-cyclopentyloxy-4-methoxyphenyl)-3-methylpyrrolidinyl]-N-cyclopentyl-2-oxoacetamide], the EC50 turned out to be 490 nM.
For the compound `COc1ccc([C@@H]2CN(C(=O)C(N)=O)C[C@@]2(C)[C@@H](C)O)cc1OCCCOc1ccc(F)cc1` [Example 77, 2-[(3S,4S)-4-{3-[3-(4-Fluorophenoxy)propoxy]-4-methoxyphenyl}-3-((R)-1-hydroxyethyl)-3-methylpyrrolidin-1-yl]-2-oxo-acetamide], the EC50 was determined as 580 nM.
In the case of `COc1ccc([C@@H]2CN(C(=O)[C@H](OC(C)=O)C3CCCCC3)C[C@@]2(C)[C@@H](C)O)cc1OC1CCCC1` [Example 90, 1-[3-((1R)-1-Hydroxyethyl)(3S,4S)-4-(3-cyclopentyloxy-4-methoxyphenyl)-3-methylpyrrolidinyl](2R)-2-cyclohexyl-2-acetoxyethan-1-one], the EC50 is 61 nM.
Take `COc1ccc([C@@H]2CN(C(=O)COCc3ccccc3)C[C@@]2(C)[C@@H](C)O)cc1OC1CCCC1` [Example 64, 1-[3-((1R)-1-Hydroxyethyl)(3S,4S)-4-(3-cyclopentyloxy-4-methoxyphenyl)-3-methylpyrrolidinyl]-2-(phenylmethoxy)ethan-1-one]: the EC50 amounted to 36.2 nM.
`COc1ccc([C@@H]2CN(C(=O)C(N)=O)C[C@@]2(C)[C@@H](C)O)cc1OC1CCCC1` [Example 74, 2-[3-((1R)-1-Hydroxyethyl)(3S,4S)-4-(3-cyclopentyloxy-4-methoxyphenyl)-3-methylpyrrolidinyl]-2-oxoacetamide]: the EC50 worked out at 557 nM.
`COc1ccc([C@@H]2CN(C(=O)C(C)(C)OC(C)=O)C[C@@]2(C)[C@@H](C)O)cc1OC1CCCC1` [Example 70, 2-(3-((1R)-1-Hydroxyethyl)(3S,4S)-4-(3-cyclopentyloxy-4-methoxyphenyl) -3-methylpyrrolidinyl]-1,1-dimethyl-2-oxoethyl acetate]: the EC50 worked out at 547 nM.
In the case of `COc1ccc([C@@H]2CN(C(=O)[C@H](N)C(C)C)C[C@@]2(C)[C@@H](C)O)cc1OC1CCCC1` [Example 87, (2R)-1-[3-((1R)-1-Hydroxyethyl)(3S,4S)-4-(3-cyclopentyloxy-4-methoxyphenyl)-3-methylpyrrolidinyl]-2-amino-3-methylbutan-1-one], the EC50 is 934 nM.
As to `COC(=O)N1C[C@@H](c2ccc(OC)c(OC3CC4CCC3C4)c2)[C@](C)(C(C)O)C1` (stereo partly drawn) [Example 5, trans 4-[3-Exo-(Bicyclo[2.2.1]hept-2-yloxy)-4-methoxyphenyl]-3-(1-hydroxyethyl)-3-methylpyrrolidine-1-carboxylic acid methyl ester], the EC50 is 1550 nM.
The value for `COc1ccc([C@@H]2CN(C(=O)[C@@H](O)C3CCCCC3)C[C@@]2(C)[C@@H](C)O)cc1OC1CCCC1` [Example 89, 1-[3-((1R)-1-Hydroxyethyl)(3S,4S)-4-(3-cyclopentyloxy-4-methoxyphenyl)-3-methylpyrrolidinyl](2S)-2-cyclohexyl-2-hydroxyethan-1-one] was 860 nM; that for `COC(=O)N1C[C@@H](c2ccc(OC)c(OC3Cc4ccccc4C3)c2)[C@](C)(C(C)O)C1` (mixture of isomers) [Example 4, trans-(±)-3-(1-Hydroxyethyl)-4-[3-(indan-2-yloxy)-4-methoxyphenyl]-3-methylpyrrolidine-1-carboxylic acid methyl ester] was 3610 nM.
In the case of `CCCC[C@H](N)C(=O)N1C[C@@H](c2ccc(OC)c(OC3CCCC3)c2)[C@](C)([C@@H](C)O)C1` [Example 93, 1-[3-((1R)-1-Hydroxyethyl)(3S,4S)-4-(3-cyclopentyloxy-4-methoxyphenyl)-3-methylpyrrolidinyl](2S)-2-aminohexan-1-one], the EC50 was 7.8 nM.
As for `COc1ccc([C@@H]2CN(c3cccnc3)C[C@@]2(C)[C@@H](C)O)cc1OC1CCCC1` [Example 35, (1R)-1-[(3S,4S)-4-(3-Cyclopentyloxy-4-methoxyphenyl)-3-methyl-1-(3-pyridyl)pyrrolidin-3-yl]ethan-1-ol], the EC50 came to 20.3 nM.
With `CCCC[C@@H](NC(=O)OCc1ccccc1)C(=O)N1C[C@@H](c2ccc(OC)c(OC3CCCC3)c2)[C@](C)([C@@H](C)O)C1` [Example 84, N-{(1R)-2-[3-((1R)-1-Hydroxyethyl)(3S,4S)-4-(3-cyclopentyloxy-4-methoxyphenyl)-3-methylpyrrolidinyl]-1-butyl-2-oxoethyl}(phenylmethoxy)carboxamide], the EC50 amounted to 40 nM.
Turning to `COc1ccc([C@@H]2CN(C(=O)C(=O)NCc3ccccc3)C[C@@]2(C)[C@@H](C)O)cc1OC1CCCC1` [Example 83, 2-[3-((1R)-1-Hydroxyethyl)(3S,4S)-4-(3-cyclopentyloxy-4-methoxyphenyl)-3-methylpyrrolidinyl]-2-oxo-N-benzylacetamide], the EC50 was 51 nM.
The same measure for `COc1ccc([C@@H]2CN(C(=O)C(=O)N3CCCCC3)C[C@@]2(C)[C@@H](C)O)cc1OC1CCCC1` [Example 81, 1-[3-((1R)-1-Hydroxyethyl)(3S,4S)-4-(3-cyclopentyloxy-4-methoxyphenyl)-3-methylpyrrolidinyl]-2-piperidylethane-1,2-dione]: 625 nM; for `COc1ccc([C@@H]2CN(C(=O)CO)C[C@@]2(C)[C@@H](C)O)cc1OC1CCCC1` [Example 65, 1-(3-((1R)-1-Hydroxyethyl)(3S,4S)-4-(3-cyclopentyloxy-4-methoxyphenyl)-3-methylpyrrolidinyl]-2-hydroxyethan-1-one]: 181 nM.
